Laboratory results published in patent US20230381378A1, “METHODS AND COMPOSITIONS FOR THE TREATMENT OF IMPLANT ASSOCIATED COMPLICATIONS” (The Board of Trustees of the Leland Stanford Junior …, priority 2020, published 2023).

Biological target: T1, Rac2 (Mus musculus, UniProt Q05144)
T1 construct: reduced the expression of immune cell-specific Rac2 in the FBR capsules by about 80%; from tissue; host or cells: FBR capsule tissue around mechanically stimulating implants in C57/BL6 wild-type mice (Jackson labs Stock No: 000664)
Experiment: Rac inhibition in the mechanically stimulating implant (MSI) mouse model of foreign body response
Assay type: in vivo
Conditions: C57/BL6 wildtype mice
Text: Implantation Experiments. Standard silicone implants and MS's were implanted in C57/BL6 mice for either 2 weeks or 1 month. A 2 cm incision was made on the dorsum of the mouse and a subcutaneous pocket was created. Control implants were placed in the subcutaneous pocket and the incision was closed using 6-0 nylon suture or staples. For vibration-enabled implants, the implants were placed into a subcutaneous pocket, similar to the procedure described above and wires were guided through the skin using a modified seldinger technique. 3V batteries with an amplitude of 1.38 G and a frequency of 203 Hz were used to mimic human conditions. MS's were vibrated for 1 hour daily from day 4 (D4) post implantation to day 11 (D11). This time period was chosen based on previous studies, showing that increased mechanical stress during this period effectively induces fibrosis.
Histology and Trichrome staining. At each timepoint, the mice were euthanized, and the implants were resected en bloc with the surrounding scar tissue. The implants were removed and the scar tissue along with the skin was fixed in 4% paraformaldehyde overnight and embedded in paraffin. Scar tissue and implants from humans were collected from patients and processed within an hour. For analysis of the capsule, paraffin sections were stained with trichrome (SigmaAldrich) as described previously. Imaging was performed on a Leica DM5000 B upright microscope. Image analysis software (Image J) was used to quantify collagen staining.
Immunostaining. Immunohistological staining was performed on paraffin sections as described previously. Briefly, heat-based antigen retrieval was followed by blocking with 5% goat serum in PBS. The following primary antibodies were used at a 1:200 dilution (as recommended by the manufacturer) and incubated overnight at 4° C.: anti-a-SMA (Abcam ab5694) or anti-Rac2 (Fischer Scientific, DF6273). Incubation of primary antibody-stained specimens with Alexa Fluor 488 secondary antibody (Thermo Fisher Scientific) was performed at a 1:400 dilution for 1 hour at room temperature. Sections were subsequently mounted using Fluoroshield (F6057, Sigma, Saint Louis, MO) with 4′, 6-diamidino-2-phenylindole (DAPI) to stain cell nuclei. Imaging was performed on a Leica DM5000 B upright microscope. Image analysis was performed using Matlab.
Rac Inhibition Experiments. EHT 1864 2HCl, a potent Rac family GTPase inhibitor, was acquired from Selleckchem (Houston, TX). MS's were implanted in C57/BL6 wildtype mice for 28 days utilizing the modified Seldinger technique described above. Mice were injected with EHT 1864 2HCl (10 mg/kg/day) (n=4) or saline (n=4) from Days 0-26. FBR capsule tissue was explanted on day 28 and processed for histologic analysis.
Statistical Analyses. Results are presented as mean±SEM. Standard data analysis was performed using student's ttests. ANOVA with posthoc tukey's test was used for multiple comparisons. Results were considered significant for *p<0.05.

[1] = 10 mg/kg/day Days 0-26 vs saline, day 28
[2] = local injection 10 mg/kg/day Days 0-26 vs saline, capsule explanted day 28

- capsule thickness (H&E staining) [1]: decreased
- collagen deposition (trichrome staining) [1]: decreased
- overall FBR [1]: significantly reduced
- reduction in the activation of myofibroblasts in MSI capsules (aSMA immunostaining) [2]: about 90%
- reduction of expression of immune cell-specific Rac2 in the FBR capsules (immunostaining, percent area positive) [2]: about 80%
SMILES: Cl.Cl.O=c1cc(CN2CCOCC2)occ1OCCCCCSc1ccnc2cc(C(F)(F)F)ccc12 [EHT 1864 2HCl]
